Assay results as given in patent US10935552B2, “Aie luminogens for visualization and treatment of cancer” (THE HONG KONG UNIVERSITY OF SCIENCE AND TECHNOLOGY, priority 2015, dated 2021).
Where a name gives a salt, the structure may show the parent alone.

Tests used:
[1] = test system: lysosome; test: Lysosome imaging in HeLa cells, co-staining with LTR; format: cell-based, human; conditions: HeLa
Experimental: Then, AIE-LysoY was applied to lysosome imaging and its lysosome-targeting performance was assessed by fluorescence microscope. HeLa cells were stained with 10 μM of AIE-LysoY for 10 min, followed by washing away the abundant molecules of AIE-LysoY and incubation with 50 nM of LTR for 30 min. […] The fluorescence of AIE-LysoY overlaps perfectly with that of LTR, indicating the lysosome-targeting of AIE-LysoY.
Quantitative analysis of the degree of overlapping of these two fluorescence signals by Pearson's coefficient (Rr), which depicts the degree of linear dependence between two variables, gives an overlapping coefficient of 0.90. The high Rr value proves that AIE-LysoY is a lysosome-selective probe. […] Changing the staining time from 10 min to 60 min, the specificity to lysosome is retained, as well as the emission contrast.
To design the lysosome-specific bioprobe, a molecular engineering approach was employed. The precursor of AIE-LysoY, FAS-Br, and two morpholine-functionalized AIEgens, TPE-2Mor and Nred-mor were prepared and applied to cell imaging. The molecular structures of TPE-2mor and Nred-mor are shown below: […]

[2] = test system: HeLa cells; test: Photostability by continuous confocal scanning of stained HeLa cells; format: cell-based, human
Excerpt: Compared with LTR, the working concentration of AIE-LysoY is much higher. LTR is not more sensitive than AIE-LysoY. As mentioned previously, LTR can only be used at low concentrations to avoid the ACQ effect. At such a low working concentration, the fluorescent probes molecularly disperse in the organelle and can be easily photooxidized by continuous excitation light, resulting in the low photostability of these probes. In order to evaluate the photostability of AIE-LysoY, a confocal microscope (Zeiss laser scanning confocal microscope LSM7 DUO) was applied to continuously scan cells stained by AIE-LysoY. The photostability of LTR was also measured for comparison. The power of excitation light (405 nm for AIE-LysoY and 561 nm for LTR) were unified by using a power meter. […] In contrast, the fluorescence intensity from LTR dropped to lower than 50% of its initial value after only 25 scans (FIG. 28, hollow circle line). The slight fluctuation of fluorescence signal can be ascribed to the dynamic movement of lysosome in living cells. The excellent photostability of AIE-LysoY may stem from its nanoparticles nature in lysosome imaging, which can protect the chromophore inside the particles from being photooxidzied. In this way, the fluorescence of […] can pertain after a long-time irradiation. […]

[3] = MTT cell viability assay, HeLa cells; format: cell-based, human; conditions: human, HeLa cells, 15 μM, MTT
Experimental: Hela cells were incubated with different concentrations of Naph-IQ in culture medium for 24 hours.
Before employing AIE-LysoY as a fluorescent visualizer of lysosome, a 3-(4,5-dimethyl-2-thiazolyl)-2,5-diphenyltetrazolium bromide (MTT) cell proliferation assay was first conducted to evaluate its cytotoxicity. […] The good biocompatibility of AIE-LysoY enables its application as a fluorescent tracer to follow the autophagic process of lysosome.

[4] = test system: HeLa cells; test: Cancer cell imaging for HeLa cells by IDA-TPE; format: cell-based, human; conditions: 10 μM, 30 mins
Experimental: Cell Culture. HeLa cells were cultured in MEM containing 10% FBS and 1% antibiotics (100 units/mL penicillin and 100 µg/mL streptomycin) in a 5% CO2 humidity incubator at 37° C.
The HeLa cells were grown overnight on a 35 mm petri dish with a cover slip. […] The cells were imaged under a fluorescent microscope (BX41 Microscope) using same excitation and emission filters: excitation filter=330-385 nm, dichroic mirror=420 nm, and emission filter=400 nm long pass.

[5] = test system: MCF-7 cells; test: Photo-bleaching resistance by continuous scanning of stained MCF-7 cells; format: cell-based; conditions: MCF-7, 2 μM 30 min, 50 scans, total irradiation 3 min, 0.1 mW
Experimental: In order to determine the working mechanism of TPE-TMX to MCF-7 cells, probes with long-term tracking are highly pursued. To compare the photo-bleaching resistance between TPE-TMX and LTR, continuous scanning of the stained MCF-7 cells by UV irradiation was carried out and the PL intensity at each scan was recorded. These two sets of MCF-7 cells were first incubated in a medium for 24 hrs and then stained with TPE-TMX and LTR at 2 μM for 30 min, respectively. The excitation power from 405 nm and 561 nm channels of the microscope was unified as 0.1 mW. The initial fluorescence intensity for the dyes was normalized and the percentage of intensity loss was calculated.

[6] = test system: MCF-7 cells; test: Fluorescence microscopy and long-term tracing of MCF-7 cells treated with TPE-TMX; format: cell-based; conditions: for Fluorescence of stained cells with increasing number of passages: long-term tracing
Excerpt: (§1) To examine this hypothesis, fluorescence microscopy of different cell lines treated with TPE-TMX was undertaken. […] Lysosome is an acidic enzyme enriched organelle responsible for digesting intracellular biomolecules, while TPE-TMX with a basic amino group is more favored to target the lysosomes in cells. Once the molecules are accumulated on the surface of lysosome, their intermolecular motions are restricted, which activates the AIE process and thus lights up the organelle.
The whole cells exclude nuclei are highly emissive after the treatment of TPE-TMX for 192 hrs, which is proposed as autophagy. This mechanism is thought to be a degradation system that is mediated by a unique organelle called the autophagosome and then fuses with lysosome to form an autolysosome. Once the autolysosomes are formed, the cells become dysfunctional and eventually cause cell death. […] This is the first time that autophagy can be fluorescently monitored using a theranostic agent for breast cancer cells.

[7] = cited from earlier work
[8] = test system: different cell lines; test: Fluorescence microscopy of different cell lines treated with TPE-TMX; format: cell-based
Excerpt: as §1

[9] = test system: ER independent breast cancer cells (MDA-MB-231 cells); test: MTT cytotoxicity of TPE-TMX, MDA-MB-231 cells; format: cell-based; conditions: MDA-MB-231, up to 10 μM
Experimental: (§2) For the rational molecular design of TPE-TMX, it is extremely critical that it can restore its therapeutic ability as TMX after the modification. To investigate its therapeutic performance, the cytotoxicity of TPE-TMX to a variety of cell lines was evaluated using a MTT assay (FIG. 33). […] Therefore, TPE-TMX may form a complex with receptor that can manifest selective accumulation in MCF-7 cells and lead to cell death.

[10] = test system: MCF-7 cells; test: Lysosomal imaging in MCF-7 cells, co-staining with LTR; format: cell-based
Experimental: The behavior of TPE-TMX in cellular settings was studied as compared to TMX. MCF-7 cells were incubated with 2 μM TPE-TMX and […] TMX for 24 hrs, respectively. The cells were then washed and directly observed under the microscope without fixation. […] However, the exact intracellular location of TMX cannot be confirmed by fluorescent microscopy because its emission wavelength is not in the range of the visible spectrum. Therefore, a series of commercial fluorescent markers were used to image drug delivery of TMX. […] On the other hand, TPE-TMX, without any aid of fluorescent dye, can be successfully monitored in the cells thanks to its intense blue emission. The controls display no emission under UV irradiation.
To further confirm the subcellular distribution of TPE-TMX, LTR was also used to co-stain MCF-7 cells with TPE-TMX. […] As expected, TPE-TMX is a specific fluorescent dye to visualize lysosomal organelle structures as well as monitor the drug release.

[11] = test system: a variety of cell lines; test: MTT cytotoxicity of TPE-TMX, other cell lines; format: cell-based; conditions: up to 10 μM
Experimental: as §2

[12] = test system: ER+ breast cancer cells (MCF-7 cells); test: MTT cytotoxicity of TPE-TMX, MCF-7 cells; format: cell-based
Experimental: as §2

[13] = test system: HeLa cells; test: Cancer cell imaging for HeLa cells (TTE, TFE, fl-TFE); format: cell-based, human
Experimental: (§3) Cell Culture. HeLa cells were cultured in MEM containing 10% FBS and 1% antibiotics (100 units/mL penicillin and 100 µg/mL streptomycin) in a 5% CO2 humidity incubator at 37° C. Cell Imaging. Lung cancer cell A549 were cultured in DMEM containing 10% FBS and antibiotics (100 units/mL penicillin and 100 µg/mL streptomycin) in a 5% CO2 humidity incubator at 37° C. Two different kind of cells were grown overnight on a 35 mm petri dish with a cover slip. The live cells were incubated with 10 μM of TTE for 15/30 mins, TFE for 30′ and fl-TFE for 30′ and 5 h (the last two have been tested only in HeLa cells). In a typical experiment, 2 μL of a 10 mM stock solution of TTE in DMSO were diluted to 1 mL with cell culture medium, followed by further dilution to desired concentration. The cells were imaged under a fluorescent microscope (BX41 Microscope) using same excitation and emission filters: excitation filter=330-385 nm, dichroic mirror=420 nm, and emission filter=400 nm long pass.
The HeLa cells were grown overnight on a 35 mm petri dish with a cover slip. The live cells were incubated with 10 μM of TTE for 30 mins, which are shown in FIG. 17A-B. The HeLa cells were incubated with 50 μM oleic acid for 6 hrs and then were co-stained by 10 μM TTE and 1 μg/mL for 15 mins.

[14] = test system: Lung cancer cell A549; test: Cancer cell imaging for lung cancer cell A549 by TTE; format: cell-based; conditions: A549, 10 μM TTE, 15 mins
Experimental: as §3
The A549 cells were grown overnight on a 35 mm petri dish with a cover slip. The live cells were incubated with 10 μM of TTE for 30 mins. The A549 cells were incubated with 10 μM TTE and 1 μg/mL for 15 mins.

[15] = test system: HeLa cells; test: Autophagy induction by rapamycin in AIE-LysoY-stained HeLa cells; format: cell-based, human; conditions: HeLa stained with 10 μM AIE-LysoY, prolonged rapamycin treatment

Oc1cc(OCCCCCCN2CCOCC2)ccc1/C=N/N=C1c2ccccc2-c2ccccc21 [AIE-LysoY, (E)-2-(((9H-fluoren-9-ylidene)hydrazono)methyl)-5-((6-morpholinohexyl)oxy) phenol]
Lysosome targeting ([1]; 10 μM 10 min, then 50 nM LTR 30 min): selectively accumulates in the dot-shaped lysosomes | Pearson's coefficient (Rr) of overlap with LTR ([1]; 10 μM AIE-LysoY, 50 nM LTR): 0.90 | Fluorescence signal after continuous scanning ([2]; 405 nm, total irradiation time ~6 min): almost remain unchanged | viability at 24 h, 15 µM [3]: > 80%

O=C(O)CN(CC(=O)O)Cc1ccc(C(=C(c2ccccc2)c2ccccc2)c2ccccc2)cc1 [IDA-TPE, iminodiacetic acid tetraphenylethene]
Cell uptake [4]: can go inside the cancer cell | Fluorescence staining of cells [4]: can target HeLa cells

CN(C)CCNC(=O)CCc1ccc2n1[B-](F)(F)[N+]1=C(c3ccc[nH]3)C=CC1=C2 [LTR, reference compound]
Fluorescence intensity relative to initial value ([2]; 561 nm, after 25 scans): lower than 50% | PL signal loss [5]: more than 55% | Fluorescence of stained cells with increasing number of passages [6]: dramatically weakened

O=C(O)C(F)(F)F [TFA, trifluoroacetic acid]
pKa [7]: about −0.3

CN(C)CCOc1ccc(C(=C(c2ccccc2)c2ccccc2)c2ccccc2)cc1 [TPE-TMX]
Subcellular localisation ([8]; all tested cell lines): localized on lysosomes in all tested cell lines | Morphological effect ([8]; other cell lines): no obvious morphological change | Cell viability by MTT [9]: not dramatically altered | Subcellular distribution ([10]; MCF-7, 2 μM 30 min, then LTR 15 min): selectively stains lysosomes | Pearson correlation coefficient of co-localization with LTR (r) ([10]; MCF-7, 2 μM TPE-TMX): 0.96 | Cell viability by MTT [11]: not dramatically altered | Cytotoxicity (therapeutic response) by MTT [12]: has only the therapeutic response to ER+ breast cancer cells (MCF-7 cells) | PL signal loss [5]: no significant PL loss | Morphological effect ([6]; MCF-7): induces the formation of vacuole, lysosomal swelling and cell death | Effect on cells in continuous monitoring ([6]; MCF-7, 2 μM): induce vacuoles, lysosome swelling, and loss of the cell population | Fluorescence intensity in cells ([6]; MCF-7 versus other cell lines): more prominent in MCF-7 cells compared to the others | Fluorescence of stained cells with increasing number of passages [6]: increases with increasing number of passages

c1csc(C(=C(c2cccs2)c2cccs2)c2cccs2)c1 [TTE, TetraThienylEthene]
Ability to enter cells as bioprobe ([13]; 10 μM, TTE in HeLa and A549, TFE and fl-TFE only in HeLa): the only one able to enter inside the cells | Organelle selectivity (overlap with BODIPY) ([13]; HeLa, 50 μM oleic acid 6 hrs, 10 μM TTE, 15 mins): can selectively target lipid droplets | Organelle selectivity (overlap with BODIPY) [14]: can selectively target lipid droplets

CO[C@H]1C[C@@H]2CC[C@@H](C)[C@@](O)(O2)C(=O)C(=O)N2CCCC[C@H]2C(=O)O[C@H]([C@H](C)C[C@@H]2CC[C@@H](O)[C@H](OC)C2)CC(=O)[C@H](C)/C=C(\C)[C@@H](O)[C@@H](OC)C(=O)[C@H](C)C[C@H](C)/C=C/C=C/C=C/1C [rapamycin]
Lysosome number (yellow spots) [15]: increased
